Test results: patent US4820723A, “Disubstituted tetrazole leukotriene antagonists and methods for their use thereas” (Eli Lilly and Company, priority 1987, dated 1989)

Tests used:
[1] = test system: LTD4 evoked ileal contractions; test: LTD4 antagonism: inhibition of LTD4 evoked contractions of isolated guinea pig ileum; design: species or system Male, Hartley guinea pigs; conditions: 5 min exposure to drug, 50% inhibition of LTD4 responses, 37° C.
Experimental: Male, Hartley guinea pigs weighing 200-450 grams were killed by decapitation. A section of terminal ileum was removed, the lumen cleaned, and the tissue divided into 2.5 cm segments. The ilea were mounted in 10 ml tissue baths containing Krebs-bicarbonate solution of the following composition in mmoles/liter: KCl, 4.6; CaCl2 ·2H2 O, 1.2; KH2 PO4, 1.2; MgSO4 ·7H2 O, 1.2; NaCl, 118.2; NaHCO3, 24.8; and dextrose, 10.0. The bath fluid was maintained at 37° C. and aerated with 95 percent oxygen and 5 percent CO2. In addition, the buffer contained 1×10^-6 M atropine to reduce ileal spontaneous activity. Isometric measurements were made with a Grass FT03C force-displacement transducer and recorded on a Grass polygraph as change in grams of force. A passive force of 0.5 g. was applied to the tissues. After an appropriate equilibration period, single submaximal control responses to pure LTD4 were obtained. Following a five minute exposure of the ileum to an experimental drug, the control concentration of LTD4 was added to the tissue bath. The response of the ileum to LTD4 in the presence of the drug was compared to the response in the absence of the drug. Various degrees of LTD4 antagonism were obtained using 2-4 different concentrations of an experimental compound on a single ileum.
Percent inhibition of LTD4 evoked ileal contractions

[2] = test system: pressor response to leukotriene D4; test: decrease of LTD4 pressor response in pithed rats; assay type: in vivo, Adult male Sprague-Dawley rats; conditions: Rattus norvegicus, iv, 0.25 h, 15 minutes prior to leukotriene D4 challenge (10 μg/kg, i.v.); dose to decrease pressor response by 50%
Experimental: A further measure of the final product's activity is their ability to decrease the pressor response in pithed rats that are challenged by LTD4. This activity is measured by the following standard procedure
Adult male Sprague-Dawley rats, weighting approximately 300-500 grams, are anesthetized with pentobarbital sodium (60 mg/kg, i.p.). The trachea is cannulated and the rats are ventilated with room air delivered from a rodent respirator (Harvard, model 680; tidal volume of 1 ml/100 grams body weight, 60 cycles/minute). Rats are pithed by passing a steel rod through the right orbit and down the entire length of the spinal column. The rod is left in position for the duration of the experiment. Pulsatile arterial blood pressure is measured from a cannulated carotid artery using a Stathamtransducer (P231D). Mean arterial blood pressure is calculated as diastolic pressure plus 1/3 pulse pressure. Drug solutions are administered i.v. through a catheter placed in a jugular vein. Arterial blood pressure is recorded on a multichannel oscillograph (Beckman, model R511A).
Groups of pithed rats, usually 4-6/group, are pretreated i.v. with a dose of test compound or vehicle (control experiments) 15 minutes prior to leukotriene D4 challenge (10 μg/kg, i.v.). Usually 3-4 doses of the test compound are evaluated in a given study. Blood pressure responses to leukotriene D4 in control and drug-treated pithed rats are then compared and an ED50 dose of antagonist is estimated. ED50 (95% confidence interval) is the calculated dose of antagonist (mg/kg, i.v.) required to decrease the pressor response to leukotriene D4 by 50%.
The ED50 values of selected final products of Formula I are set forth below in Table 2.

Compound	-log IC50 [1]	ED50 [2]
CCCc1c(OCCCCc2nnn(CC(=O)O)n2)ccc(C(C)=O)c1O [A]	6.68	> 30 mg/kg
CCCc1c(OCCCCc2nnnn2CC(=O)O)ccc(C(C)=O)c1O [B]	5.88	> 30 mg/kg
CCCc1c(OCCCc2nnn(CC(=O)O)n2)ccc(C(C)=O)c1O [C]	5.82	
CCCc1c(OCCCc2nnnn2CC(=O)O)ccc(C(C)=O)c1O [D]	5.95	
CCCc1c(OCCCCCCc2nnn(CC(=O)O)n2)ccc(C(C)=O)c1O [E]	6.83	> 30 mg/kg
CCCc1c(OCCCCc2nnn(CCCCc3nnn[nH]3)n2)ccc(C(C)=O)c1O [Example 23A, 5-[4-(4-Acetyl-3-hydroxy-2-(n-propyl)phenoxy)butyl]-2[4-(1H-tetrazol-5-yl)butyl]-2H-tetrazole]	7.65	7.5 mg/kg
CCCc1c(OCCCCc2nnnn2CCCCC(=O)O)ccc(C(C)=O)c1O [Example 24]	6.14	
CCCc1c(OCCCCc2nnn(CCCc3nn[nH]n3)n2)ccc(C(C)=O)c1O [Example 25]	7.42	8.4 mg/kg
CCCc1c(OCCCCc2nnn(CCCCCCc3nn[nH]n3)n2)ccc(C(C)=O)c1O [Example 26, 5-4-(4-Acetyl-3-hydroxy-2-(n-propyl)phenoxybutyl]-2-[6-(1H-tetrazol-5-yl)hexyl]-2H-tetrazole]	7.63	18.6 mg/kg
CCCc1c(OCCCCc2nnn(CCCCCCC(=O)O)n2)ccc(C(C)=O)c1O [Example 27, 5-[4-(4-Acetyl-3-hydroxy-2-propylphenoxy)butyl]-2H-tetrazole-2-(7-heptanoicacid)]	7.05	12.7 mg/kg
CCCc1c(OCCCCc2nnn(CCCCCc3nnn[nH]3)n2)ccc(C(C)=O)c1O [Example 28, 5-[4-(4-Acetyl-3-hydroxy-2-(n-propyl)phenoxy)butyl]-2-[5-(1H-tetrazol-5-yl)pentyl]-2H-tetrazole]	7.57	9.7 mg/kg
CCCc1c(OCCCCc2nnn(CCCCCC(=O)O)n2)ccc(C(C)=O)c1O [Example 29]	7.35	8.7 mg/kg
CCCc1c(OCCCCc2nnn(Cc3ccc(-c4nn[nH]n4)cc3)n2)ccc(C(C)=O)c1O [Example 30]	7.54	16.8 mg/kg
CCCc1c(OCCCCc2nnnn2Cc2ccc(C(=O)O)cc2)ccc(C(C)=O)c1O [Example 33, 5-[4-(4-Acetyl-3-hydroxy-2-(n-propyl)phenoxy)butyl]-1H-tetrazole-1-[para-methylenebenzoic acid]]	6.30	
CCCc1c(OCCCCc2nnn(Cc3cccc(-c4nnn[nH]4)c3)n2)ccc(C(C)=O)c1O [Example 34, 5-[4-(4-Acetyl-3-hydroxy-2-(n-propyl)phenoxy)butyl]-2-[meta-(1H-tetrazol-5-yl)benzyl]-2H-tetrazole]	7.52	25.5 mg/kg
CCCc1c(OCCCCc2nnn(Cc3cccc(C(=O)O)c3)n2)ccc(C(C)=O)c1O [Example 35, 5-[4-(4-Acetyl-3-hydroxy-2-(n-propyl)phenoxy)butyl]-2H-tetrazole-2-(α-methylene-m-benzoic acid)]	7.15	27.5 mg/kg
CCCc1c(OCCCCCc2nnn(CCCc3nn[nH]n3)n2)ccc(C(C)=O)c1O [Example 38]	6.62	
CCCc1c(OCCCCCc2nnn(CCCC(=O)O)n2)ccc(C(C)=O)c1O [Example 39, 5-[5-(Acetyl-3-hydroxy-2-(n-propyl)phenoxy)pentyl]-2-[4-butanoic acid]-2H-tetrazole]	6.37	25.8 mg/kg

Compound	-log IC50 [1]	ED50 [2]
CCCc1c(OCCCCCc2nnn(CCCCc3nnn[nH]3)n2)ccc(C(C)=O)c1O [Example 40, 5-[5-(4-Acetyl-3-hydroxy-2-(n-propyl)phenoxy)pentyl]-2-[4-(1H-tetrazol-5-yl)butyl]-2H-tetrazole]	6.83	
CCCc1c(OCCCCc2nnn(CCC(=O)O)n2)ccc(C(C)=O)c1O [Example 44, 5-[4-(4-Acetyl-3-hydroxy-2-propylphenoxy)butyl]-2H-tetrazol-2-(3-propionic acid)]	6.81	10.6 mg/kg
CCCc1c(OCCCCc2nnnn2CCC(=O)O)ccc(C(C)=O)c1O [Example 45, 5-[4-(4-Acetyl-3-hydroxy-2-(n-propyl)phenoxy)butyl]-1H-tetrazole-1-[3-propionic acid]]	5.83	> 30 mg/kg
CCCc1c(OCCCCc2nnn(CCCC(=O)O)n2)ccc(C(C)=O)c1O [Example 46, 5-[4-(4-Acetyl-3-hydroxy-2-propylphenoxy)butyl]-2H-tetrazol-2-(4-butyric acid)]	7.12	8.1 mg/kg
CCCc1c(OCCCCc2nnnn2CCCC(=O)O)ccc(C(C)=O)c1O [Example 47, 5-[4-(4-Acetyl-3-hydroxy-2-(n-propyl)phenoxy)butyl]-1-[4-butanoic acid]-1H-tetrazole]	5.89	> 30 mg/kg
CCCc1c(OCCCCc2nnn(CCCCC(=O)O)n2)ccc(C(C)=O)c1O [Example 48, 5-[4-(4-Acetyl-3-hydroxy-2-propylphenoxy)butyl]-2H-tetrazol-2-(5-pentanoic acid)]	7.15	9.9 mg/kg
CCCc1c(OCCCCCCc2nnnn2CCCC(=O)O)ccc(C(C)=O)c1O [Example 50]	6.54	17.3 mg/kg
CCCc1c(OCCCCCCc2nnn(CCCC(=O)O)n2)ccc(C(C)=O)c1O [Example 51, 5-[6-(4-Acetyl-3-hydroxy-2-(n-propyl)phenoxy)hexyl]-2H-tetrazole-2-[4-butanoic acid]]	6.75	18.3 mg/kg
CCCc1c(Oc2ccc(-c3nnn(CCCc4nn[nH]n4)n3)cc2)ccc(C(C)=O)c1O [Example 59]	7.50	
CCCc1c(Oc2ccc(-c3nnn(CCCC(=O)O)n3)cc2)ccc(C(C)=O)c1O [Example 60, 5-[para-(4-Acetyl-3-hydroxy-2-(n-propyl)phenoxy)phenyl]-2H-tetrazole-2-[4-butanoic acid]]	7.26	
CCCc1c(OCCCc2nnnn2CCCCC(=O)O)ccc(C(C)=O)c1O [Example 61, 5-[3-(4-Acetyl-3-hydroxy-2-(n-propyl)phenoxy)propyl]-1H-tetrazole-1-[5-pentanoic acid]]	5.20	
CCCc1c(OCCCc2nnn(CCCCC(=O)O)n2)ccc(C(C)=O)c1O [Example 62, 5-[3-(4-Acetyl-3-hydroxy-2-propylphenoxy)-propyl]-2H-tetrazol-2-(5-pentanoic acid)]	6.47	
CCCc1c(OCCCCn2nnc(CCCC(=O)O)n2)ccc(C(C)=O)c1O [Example 64, 2-[4-(4-Acetyl-3-hydroxy-2-(n-propyl)phenoxy)-butyl]-2H-tetrazole-5-butanoic acid]	7.51	
CCCc1c(OCCCCn2nnnc2CCCC(=O)O)ccc(C(C)=O)c1O [Example 65, 1-4-(4-acetyl-3-hydroxy-2-(n-propylphenoxy)butyl]-1H-tetrazole-5-butanoic acid]	6.18	
CCCc1c(OCCCCn2nnc(Cc3ccc(C(=O)O)cc3)n2)ccc(C(C)=O)c1O [Example 67, 4-[[2-[4-(4-Acetyl-3-hydroxy-2-(n-propyl)phenoxy)butyl]-2H-tetrazol-5-yl]methyl]benzoic acid]	7.25	
CCCc1c(OCCCCn2nnnc2Cc2ccc(C(=O)O)cc2)ccc(C(C)=O)c1O [Example 68]	6.66	
CCCc1c(OCCCCCCc2nnnn2CC(=O)O)ccc(C(C)=O)c1O [F]	6.59	27.1 mg/kg
CCCc1c(OCCCCCc2nnn(CC(=O)O)n2)ccc(C(C)=O)c1O [G]	6.3	> 30 mg/kg
